# Target: human GLP1R (Homo sapiens, UniProt P43220)
# Experiment: Human GLP1R DERET internalization assay
# Type: cell-based
# Details: HEK293-SNAP-hGLP1R-GloSensor cells; for EC50: top concentration 30 μM; for Emax: relative to GLP1(7-36)
# Description: Compounds of formula (I) according to the invention were tested in the following cellular assays that measure the intracellular cAMP concentration, beta-arrestin recruitment and receptor internalization. The cAMP is generated by the activation of GLP1R. The extent to which the GLP1R is internalized into the cell and away from the plasma membrane following activation is also shown in Table 2. EC50 for each assay is defined as the concentration of the compound that leads to half of the maximum response (after baseline correction). Emax is defined as the maximum response observed for the test compound, normalized to the maximum response observed for the endogenous ligand (GLP1(7-36)) to GLP1R.
# Human GLP1R DERET Internalization Assay
# The extent to which agonists internalize the human GLP1R was determined based on an optimized version of a RealTime FRET-based ‘DERET’ (Dissociation Enhanced Resonance Energy Transfer) assay. The technology relies on labeling of the SNAP-tagged GPCR with a SNAP-Lumi-Terbium (donor fluorophore, Cisbio, cat #SSNPTBD). The compounds are incubated with the cells over-expressing the GPCR of interest in the presence of an excess of fluorescein (acceptor fluorophore). When the GPCR is on the cell surface, the donor signal is quenched by the acceptor and the donor/acceptor ratio is low. As the GPCR internalizes, the donor signal is no longer quenched, and the acceptor is no longer excited so the donor/acceptor ratio increases.
# HEK293-SNAP-hGLP1R-GloSensor cells (stably overexpressing SNAP-tagged hGLP1R) were seeded overnight in white 384-well poly-D-Lysine coated plates (Greiner Bio One, cat #781945) in regular DMEM growth medium (Gibco, cat #11965-092, 10% heat-inactivated FBS, 10 mM HEPES, 1× penicillin/streptomycin, 0.5 mg/mL geneticin (Gibco, cat #10131-035) and 0.25 mg/mL hygromycin B (Invitrogen, cat #10687010). On the assay day, cell medium was removed and 100 nM SNAP-Lumi-Tb reagent was added in Opti-MEM solution. The cells were incubated at 37° C. for 1 h. Cells were washed using a plate washer in assay buffer [1×HBSS (10× Gibco, cat #14065-056), 20 mM Hepes (Gibco, cat #15630-080), 1 mM CaCl2 (Fluka, cat #21114-1L), 1 mM MgCl2 (Ambion, cat #AM9530G) pH7.4], and 20 μL buffer with 0.1% BSA was added to each well. After leaving cells to equilibrate for […] at 37° C., 10 μL of Fluorescein (sodium salt, Sigma, cat #F6377, diluted in buffer) was added at 25 μM final concentration. To generate triplicate dose response curves, compounds were serially diluted 3-fold in assay buffer, then added to the cell assay plate to a final volume of 40 μL and final top concentrations starting at 30 μM. In the same plate and assay buffer as the tested compounds, a GLP1 (7-36) peptide (Bachem, cat #H-6795) control curve was included at a final top concentration of 1 μM in order to establish EC100. EC0 wells with buffer only were also included. The plate FRET fluorescence was measured immediately using a Perkin Elmer Envision with LANCE/DELFIA D400 single mirror, excitation filter X320, and emission filters M615_203 (donor emission) and M515 (acceptor emission), and then measured every 30 min. […] Plates were kept at 37° C. between reads. Data was expressed as the ratio of donor/acceptor emissions using Microsoft Excel and plotted in GraphPad Prism. In order to determine EC50 and Emax for internalization, data was calculated and expressed as percent of the GLP1 (7-36) EC100 control wells: [(sample signal−mean EC0 signal)/(mean EC100 of GLP1 (7-36) signal−mean EC0 signal)]*100 using Microsoft Excel. Curve fitting for EC50 determinations was performed using GraphPad Prism. The 4-parameter logistic model, Hill slope was used:
# where Y is the functional response; X is the compound concentration; bottom is A0 or the minimum value (at 0 dose); top is Ainf or the maximum value (at infinite dose); EC50 is the point of inflection (i.e. the point on the sigmoid shaped curve halfway between A0 and Ainf). […]
# human GLP1R, sequence (P43220 24-463): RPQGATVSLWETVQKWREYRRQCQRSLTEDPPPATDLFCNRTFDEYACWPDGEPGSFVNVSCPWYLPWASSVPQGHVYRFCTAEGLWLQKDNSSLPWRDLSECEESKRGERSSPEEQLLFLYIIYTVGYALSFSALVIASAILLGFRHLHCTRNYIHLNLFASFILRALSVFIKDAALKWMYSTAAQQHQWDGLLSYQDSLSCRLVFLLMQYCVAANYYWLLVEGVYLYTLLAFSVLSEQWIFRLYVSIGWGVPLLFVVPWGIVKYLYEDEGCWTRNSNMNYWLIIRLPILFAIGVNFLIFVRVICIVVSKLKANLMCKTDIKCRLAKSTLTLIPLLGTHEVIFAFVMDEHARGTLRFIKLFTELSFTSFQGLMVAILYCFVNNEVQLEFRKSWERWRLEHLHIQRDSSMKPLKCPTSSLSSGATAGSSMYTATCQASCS
Structure (SMILES),EC50 [µM],Emax [%]
"Cc1nc(CN2CCC(c3cccc4c3O[C@@](C)(c3ccc(Cl)cc3F)O4)CC2)n(C[C@@H]2CCO2)c1-c1nc(C(=O)O)c(C)o1 [Compound C-1, 2-(2-((4-((S)-2-(4-chloro-2-fluorophenyl)-2-methylbenzo[d][1,3]dioxol-4-yl)piperidin-1-yl)methyl)-4-methyl-1-(((S)-oxetan-2-yl)methyl)-1H-imidazol-5-yl)-5-methyloxazole-4-carboxylic acid]",> 30,8
"C[C@]1(c2ccc(Cl)cc2F)Oc2cccc(C3CCN(Cc4nc(C(F)(F)F)c(-c5nc(C(=O)O)co5)n4C[C@@H]4CCO4)CC3)c2O1 [Compound C-4, 2-(2-((4-((S)-2-(4-chloro-2-fluorophenyl)-2-methylbenzo[d][1,3]dioxol-4-yl)piperidin-1-yl)methyl)-1-(((S)-oxetan-2-yl)methyl)-4-(trifluoromethyl)-1H-imidazol-5-yl)oxazole-4-carboxylic acid]",> 30,1
"CCc1nc(CN2CCC(c3cccc4c3O[C@@](C)(c3ccc(Cl)cc3F)O4)CC2)n(C[C@@H]2CCO2)c1-c1nc(C(=O)O)co1 [Compound C-5, 2-(2-((4-((S)-2-(4-chloro-2-fluorophenyl)-2-methylbenzo[d][1,3]dioxol-4-yl)piperidin-1-yl)methyl)-4-ethyl-1-(((S)-oxetan-2-yl)methyl)-1H-imidazol-5-yl)oxazole-4-carboxylic acid]",> 30,6
"CCc1nc(CN2CCC(c3cccc4c3O[C@@](C)(c3ccc(Cl)cc3F)O4)CC2)n(C[C@H]2CCO2)c1-c1nc(C(=O)O)co1 [Compound C-7, 2-(2-((4-((S)-2-(4-chloro-2-fluorophenyl)-2-methylbenzo[d][1,3]dioxol-4-yl)piperidin-1-yl)methyl)-4-ethyl-1-(((R)-oxetan-2-yl)methyl)-1H-imidazol-5-yl)oxazole-4-carboxylic acid]",0.03,51
"Cc1nc(CN2CCC(c3cccc4c3O[C@@](C)(c3ccc(Cl)cc3F)O4)CC2)n(C[C@@H]2CCO2)c1-c1nc(C(=O)O)co1 [Compound C-9, 2-(2-((4-((S)-2-(4-chloro-2-fluorophenyl)-2-methylbenzo[d][1,3]dioxol-4-yl)piperidin-1-yl)methyl)-4-methyl-1-(((S)-oxetan-2-yl)methyl)-1H-imidazol-5-yl)oxazole-4-carboxylic acid]",> 30,11
"CCc1oc(-c2c(C)nc(CN3CCC(c4cccc5c4O[C@@](C)(c4ccc(Cl)cc4F)O5)CC3)n2C[C@@H]2CCO2)nc1C(=O)O [Compound C-10, 2-(2-((4-((S)-2-(4-chloro-2-fluorophenyl)-2-methylbenzo[d][1,3]dioxol-4-yl)piperidin-1-yl)methyl)-4-methyl-1-(((S)-oxetan-2-yl)methyl)-1H-imidazol-5-yl)-5-ethyloxazole-4-carboxylic acid]",> 30,7
"Cc1oc(-c2nc(CN3CCC(c4cccc5c4O[C@@](C)(c4ccc(Cl)cc4F)O5)CC3)n(C[C@@H]3CCO3)c2C)nc1C(=O)O [Compound C-12, 2-(2-((4-((S)-2-(4-chloro-2-fluorophenyl)-2-methylbenzo[d][1,3]dioxol-4-yl)piperidin-1-yl)methyl)-5-methyl-1-(((S)-oxetan-2-yl)methyl)-1H-imidazol-4-yl)-5-methyloxazole-4-carboxylic acid]",> 30,45
"Cc1c(-c2nc(C(=O)O)co2)nc(CN2CCC(c3cccc4c3O[C@@](C)(c3ccc(Cl)cc3F)O4)CC2)n1C[C@@H]1CCO1 [Compound C-13, 2-(2-((4-((S)-2-(4-chloro-2-fluorophenyl)-2-methylbenzo[d][1,3]dioxol-4-yl)piperidin-1-yl)methyl)-5-methyl-1-(((S)-oxetan-2-yl)methyl)-1H-imidazol-4-yl)oxazole-4-carboxylic acid]",1.28,42
"Cc1c(-c2nc(C(F)(F)F)c(C(=O)O)o2)nc(CN2CCC(c3cccc4c3O[C@@](C)(c3ccc(Cl)cc3F)O4)CC2)n1C[C@@H]1CCO1 [Compound C-14, 2-(2-((4-((S)-2-(4-chloro-2-fluorophenyl)-2-methylbenzo[d][1,3]dioxol-4-yl)piperidin-1-yl)methyl)-5-methyl-1-(((S)-oxetan-2-yl)methyl)-1H-imidazol-4-yl)-4-(trifluoromethyl)oxazole-5-carboxylic acid]",> 30,20
"Cc1c(-c2cnc(C(=O)O)o2)nc(CN2CCC(c3cccc4c3O[C@@](C)(c3ccc(Cl)cc3F)O4)CC2)n1C[C@@H]1CCO1 [Compound C-16, 5-(2-((4-((S)-2-(4-chloro-2-fluorophenyl)-2-methylbenzo[d][1,3]dioxol-4-yl)piperidin-1-yl)methyl)-5-methyl-1-(((S)-oxetan-2-yl)methyl)-1H-imidazol-4-yl)oxazole-2-carboxylic acid]",2.94,50
"Cc1c(-c2cc(C(=O)O)n(C)n2)nc(CN2CCC(c3cccc4c3O[C@@](C)(c3ccc(Cl)cc3F)O4)CC2)n1C[C@@H]1CCO1 [Compound C-17, 3-(2-((4-((S)-2-(4-chloro-2-fluorophenyl)-2-methylbenzo[d][1,3]dioxol-4-yl)piperidin-1-yl)methyl)-5-methyl-1-(((S)-oxetan-2-yl)methyl)-1H-imidazol-4-yl)-1-methyl-1H-pyrazole-5-carboxylic acid]",> 30,6
"Cc1c(-c2coc(C(=O)O)n2)nc(CN2CCC(c3cccc4c3O[C@@](C)(c3ccc(Cl)cc3F)O4)CC2)n1C[C@@H]1CCO1 [Compound C-18, 4-(2-((4-((S)-2-(4-chloro-2-fluorophenyl)-2-methylbenzo[d][1,3]dioxol-4-yl)piperidin-1-yl)methyl)-5-methyl-1-(((S)-oxetan-2-yl)methyl)-1H-imidazol-4-yl)oxazole-2-carboxylic acid]",2.38,86
"Cc1cc(-c2nc(CN3CCC(c4cccc5c4O[C@@](C)(c4ccc(Cl)cc4F)O5)CC3)n(C[C@@H]3CCO3)c2C)oc1C(=O)O [Compound C-19, 5-(2-((4-((S)-2-(4-chloro-2-fluorophenyl)-2-methylbenzo[d][1,3]dioxol-4-yl)piperidin-1-yl)methyl)-5-methyl-1-(((S)-oxetan-2-yl)methyl)-1H-imidazol-4-yl)-3-methylfuran-2-carboxylic acid]",> 30,34
"Cc1nc(CN2CCC(c3cccc4c3O[C@@](C)(c3ccc(Cl)cc3F)O4)CC2)n(C[C@@H]2CCO2)c1-c1coc(C(=O)O)n1 [Compound C-20, 4-(2-((4-((S)-2-(4-chloro-2-fluorophenyl)-2-methylbenzo[d][1,3]dioxol-4-yl)piperidin-1-yl)methyl)-4-methyl-1-(((S)-oxetan-2-yl)methyl)-1H-imidazol-5-yl)oxazole-2-carboxylic acid]",> 30,5
"Cc1nc(CN2CCC(c3cccc4c3O[C@@](C)(c3ccc(Cl)cc3F)O4)CC2)n(C[C@@H]2CCO2)c1-c1cc(C(=O)O)n(C)n1 [Compound C-21, 3-(2-((4-((S)-2-(4-chloro-2-fluorophenyl)-2-methylbenzo[d][1,3]dioxol-4-yl)piperidin-1-yl)methyl)-4-methyl-1-(((S)-oxetan-2-yl)methyl)-1H-imidazol-5-yl)-1-methyl-1H-pyrazole-5-carboxylic acid]",> 30,2

# From patent publication US20250145600A1, “2-((4-((S)-2-(4-CHLORO-2-FLUOROPHENYL)-2-METHYLBENZO[D][1,3]DIOXOL-4-YL)PIPERIDIN-1-YL)METHYL)-1-(((S)-OXETAN-2-YL)METHYL)-1H-IMIDAZOLE DERIVATIVES AS ACTIVATORS OF THE GLP1 RECEPTOR FOR THE TREATMENT OF OBESITY” (Novartis AG, priority 2022, published 2025)
